# Measurements as given in ChEMBL document CHEMBL4038335, “Neuroactive Steroids. 2. 3α-Hydroxy-3β-methyl-21-(4-cyano-1H-pyrazol-1'-yl)-19-nor-5β-pregnan-20-one (SAGE-217): A Clinical Next Generation Neuroactive Steroid Positive Allosteric Modulator of the (γ-Aminobutyric Acid)A Receptor” (J Med Chem, 2017).
# Experiments:
# [1] = Lipophilicity, logD of compound at 20 uM at pH 7.4 by HPLC/MS-MS analysis; type: physicochemical; details: buffer
# [2] = molecular target: GABA-A receptor alpha-4/beta-3/delta (Homo sapiens, UniProt P28472+P48169+); experiment: (§1) Positive allosteric modulation of GABAA receptor alpha4beta3delta (unknown origin) expressed in CHO cells assessed as potentiation of GABA-mediated increase in channel current under holding potential at -80 mV at 0.01 to 10 uM preincubated for 30 secs followed by GABA stimulation for 2 secs by manual patch clamp assay relative to GABA; type: cell-based; details: 2 s
# [3] = Ratio of drug level in Sprague-Dawley rat brain to plasma at 5 mg/kg, iv measured at 30 mins post dose by LC/MS-MS analysis; type: ADME, organism-based; details: read-out: BPR
# [4] = Clearance in rat hepatic microsomes at 10 uM preincubated for 5 mins followed by NADPH addition measured over 60 mins by HPLC-MS/MS analysis; type: ADME, Microsome; details: liver microsomes
# [5] = Displacement of [35S]TBPS from GABA-A receptor in Sprague-Dawley rat cerebral cortex cell membranes after 90 mins in presence of GABA by liquid scintillation counting
# [6] = Clearance in mouse hepatic microsomes at 10 uM preincubated for 5 mins followed by NADPH addition measured over 60 mins by HPLC-MS/MS analysis; type: ADME, Microsome; details: liver microsomes
# [7] = Clearance in CD1 mouse at 5 mg/kg, iv or 20 mg/kg, po measured up to 8 hrs post dose by LC/MS-MS analysis; type: ADME, organism-based; details: in vivo
# [8] = Thermodynamic aqueous solubility of compound at 10 uM sonicated for 1 min followed by incubation for 1 hr by HPLC-MS/MS; type: physicochemical; details: buffer; read-out: Therm_solubility
# [9] = molecular target: GABA-A receptor; alpha-1/beta-2/gamma-2 (Homo sapiens) (UniProt P14867+P47870+P18507); experiment: as §1, with “alpha1beta2gamma2” for “alpha4beta3delta”, “mouse LTK” for “CHO”, “automated” for “manual”; type: cell-based
# [10] = Clearance in human hepatic microsomes at 10 uM preincubated for 5 mins followed by NADPH addition measured over 60 mins by HPLC-MS/MS analysis; type: ADME, Microsome; details: liver microsomes
# [11] = molecular target: Gamma-aminobutyric acid receptor subunit alpha-4/beta3/delta (Homo sapiens, UniProt O14764+P28472+P48169); experiment: as §1, with “mV” for “mV at 0.01 to 10 uM”, “assay” for “assay relative to GABA”; type: cell-based
# [12] = Clearance in Sprague-Dawley rat at 5 mg/kg, iv or 20 mg/kg, po measured up to 8 hrs post dose by LC/MS-MS analysis; type: ADME, organism-based; details: in vivo
# [13] = molecular target: T1, GABA-A receptor; alpha-1/beta-2/gamma-2 (Homo sapiens, UniProt P14867+P18507+P47870); experiment: as §1, with “alpha1beta2gamma2” for “alpha4beta3delta”, “mouse LTK” for “CHO”, “mV” for “mV at 0.01 to 10 uM”, “automated” for “manual”, “assay” for “assay relative to GABA”; type: cell-based
# T1 sequence (P14867 whole entry): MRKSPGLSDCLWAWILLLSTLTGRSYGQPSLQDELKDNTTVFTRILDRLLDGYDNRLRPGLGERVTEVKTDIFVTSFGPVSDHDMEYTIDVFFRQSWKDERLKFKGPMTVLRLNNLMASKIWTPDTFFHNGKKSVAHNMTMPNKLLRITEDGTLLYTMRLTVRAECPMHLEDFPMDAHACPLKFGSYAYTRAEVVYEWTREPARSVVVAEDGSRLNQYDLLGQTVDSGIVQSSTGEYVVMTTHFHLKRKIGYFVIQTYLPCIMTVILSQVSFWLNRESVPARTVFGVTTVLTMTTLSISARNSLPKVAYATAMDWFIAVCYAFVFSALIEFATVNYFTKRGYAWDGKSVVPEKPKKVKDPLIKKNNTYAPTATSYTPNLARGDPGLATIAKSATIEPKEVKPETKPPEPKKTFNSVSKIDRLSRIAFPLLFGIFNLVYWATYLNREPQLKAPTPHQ
# T1 sequence (P47870 whole entry): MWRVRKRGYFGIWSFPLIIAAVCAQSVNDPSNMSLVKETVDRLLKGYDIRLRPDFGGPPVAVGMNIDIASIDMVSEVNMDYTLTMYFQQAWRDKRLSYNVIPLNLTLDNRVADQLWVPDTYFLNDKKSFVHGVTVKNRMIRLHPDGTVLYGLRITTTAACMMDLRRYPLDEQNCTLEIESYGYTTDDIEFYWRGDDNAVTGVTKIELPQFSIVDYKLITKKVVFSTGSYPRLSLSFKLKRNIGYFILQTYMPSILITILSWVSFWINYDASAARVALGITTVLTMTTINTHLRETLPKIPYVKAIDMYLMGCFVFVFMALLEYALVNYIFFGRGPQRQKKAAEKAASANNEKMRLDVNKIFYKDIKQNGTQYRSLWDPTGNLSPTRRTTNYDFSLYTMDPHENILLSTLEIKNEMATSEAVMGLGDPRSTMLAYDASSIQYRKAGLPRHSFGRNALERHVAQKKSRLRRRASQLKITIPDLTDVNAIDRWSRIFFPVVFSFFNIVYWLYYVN
# T1 sequence (P18507 whole entry): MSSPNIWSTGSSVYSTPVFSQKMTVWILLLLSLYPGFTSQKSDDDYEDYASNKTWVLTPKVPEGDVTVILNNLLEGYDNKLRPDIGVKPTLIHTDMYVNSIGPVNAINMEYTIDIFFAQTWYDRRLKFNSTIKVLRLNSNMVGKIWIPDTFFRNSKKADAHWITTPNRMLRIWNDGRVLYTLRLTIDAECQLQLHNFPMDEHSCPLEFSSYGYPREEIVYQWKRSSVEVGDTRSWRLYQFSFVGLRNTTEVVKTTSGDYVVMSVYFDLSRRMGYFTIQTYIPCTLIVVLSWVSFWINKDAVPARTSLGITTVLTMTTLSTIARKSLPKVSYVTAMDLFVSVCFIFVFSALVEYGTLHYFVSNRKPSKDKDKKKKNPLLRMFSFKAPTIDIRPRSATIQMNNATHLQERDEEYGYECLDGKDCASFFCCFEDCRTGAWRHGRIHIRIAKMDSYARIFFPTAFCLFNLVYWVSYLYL
# [14] = Oral bioavailability in Sprague-Dawley rat at 20 mg/kg measured up to 8 hrs post dose by LC/MS-MS analysis; type: ADME, organism-based; details: in vivo
# [15] = Oral bioavailability in CD1 mouse at 20 mg/kg measured up to 8 hrs post dose by LC/MS-MS analysis; type: ADME, organism-based; details: in vivo
# [16] = Ratio of drug level in CD1 mouse brain to plasma at 5 mg/kg, iv measured at 30 mins post dose by LC/MS-MS analysis; type: ADME, organism-based; details: read-out: BPR
# Chain of Gamma-aminobutyric acid receptor subunit alpha-4/beta3/delta (P28472 whole entry): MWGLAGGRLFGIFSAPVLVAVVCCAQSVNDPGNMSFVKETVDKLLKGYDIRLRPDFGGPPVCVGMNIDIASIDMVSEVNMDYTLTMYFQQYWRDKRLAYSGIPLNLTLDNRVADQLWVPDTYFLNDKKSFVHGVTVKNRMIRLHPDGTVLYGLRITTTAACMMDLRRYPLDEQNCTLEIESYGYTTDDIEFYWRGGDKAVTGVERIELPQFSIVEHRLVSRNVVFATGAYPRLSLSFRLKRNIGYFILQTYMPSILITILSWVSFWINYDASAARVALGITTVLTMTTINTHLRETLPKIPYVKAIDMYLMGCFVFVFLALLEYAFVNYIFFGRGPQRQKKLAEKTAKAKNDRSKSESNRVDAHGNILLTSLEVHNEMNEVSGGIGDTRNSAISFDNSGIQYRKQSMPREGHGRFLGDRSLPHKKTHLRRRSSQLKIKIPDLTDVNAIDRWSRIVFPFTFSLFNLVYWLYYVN
# Chain of Gamma-aminobutyric acid receptor subunit alpha-4/beta3/delta (P48169 whole entry): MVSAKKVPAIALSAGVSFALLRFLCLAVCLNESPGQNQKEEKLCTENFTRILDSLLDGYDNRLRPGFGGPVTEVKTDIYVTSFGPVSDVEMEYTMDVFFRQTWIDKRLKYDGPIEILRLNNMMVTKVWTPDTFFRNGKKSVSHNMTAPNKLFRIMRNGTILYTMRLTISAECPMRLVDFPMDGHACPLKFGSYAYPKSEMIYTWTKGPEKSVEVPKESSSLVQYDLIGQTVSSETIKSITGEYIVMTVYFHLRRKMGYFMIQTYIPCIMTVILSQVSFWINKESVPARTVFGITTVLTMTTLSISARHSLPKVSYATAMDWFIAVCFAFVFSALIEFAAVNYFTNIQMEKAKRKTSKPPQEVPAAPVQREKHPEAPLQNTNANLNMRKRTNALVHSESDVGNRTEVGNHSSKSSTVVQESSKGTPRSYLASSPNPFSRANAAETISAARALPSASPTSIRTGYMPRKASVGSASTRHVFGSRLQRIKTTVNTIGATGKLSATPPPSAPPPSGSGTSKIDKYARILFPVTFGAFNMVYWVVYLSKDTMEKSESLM
# Chain of Gamma-aminobutyric acid receptor subunit alpha-4/beta3/delta (O14764 whole entry): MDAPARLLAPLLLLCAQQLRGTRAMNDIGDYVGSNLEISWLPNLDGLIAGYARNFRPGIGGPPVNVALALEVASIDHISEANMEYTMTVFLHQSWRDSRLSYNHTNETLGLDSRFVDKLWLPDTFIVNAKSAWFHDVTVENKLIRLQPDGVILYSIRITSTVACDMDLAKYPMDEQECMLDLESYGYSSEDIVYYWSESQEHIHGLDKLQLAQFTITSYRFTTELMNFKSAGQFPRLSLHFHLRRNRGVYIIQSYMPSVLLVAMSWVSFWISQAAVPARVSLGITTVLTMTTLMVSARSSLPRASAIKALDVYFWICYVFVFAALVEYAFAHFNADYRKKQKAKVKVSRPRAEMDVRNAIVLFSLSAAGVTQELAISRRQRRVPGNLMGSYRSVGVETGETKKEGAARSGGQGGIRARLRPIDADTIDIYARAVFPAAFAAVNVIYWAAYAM
# Chain of GABA-A receptor alpha-4/beta-3/delta (P28472 whole entry): as the sequence (P28472 whole entry) above
# Chain of GABA-A receptor alpha-4/beta-3/delta (P48169 whole entry): as the sequence (P48169 whole entry) above
# Chain of GABA-A receptor alpha-4/beta-3/delta (Q06278 whole entry, further chain): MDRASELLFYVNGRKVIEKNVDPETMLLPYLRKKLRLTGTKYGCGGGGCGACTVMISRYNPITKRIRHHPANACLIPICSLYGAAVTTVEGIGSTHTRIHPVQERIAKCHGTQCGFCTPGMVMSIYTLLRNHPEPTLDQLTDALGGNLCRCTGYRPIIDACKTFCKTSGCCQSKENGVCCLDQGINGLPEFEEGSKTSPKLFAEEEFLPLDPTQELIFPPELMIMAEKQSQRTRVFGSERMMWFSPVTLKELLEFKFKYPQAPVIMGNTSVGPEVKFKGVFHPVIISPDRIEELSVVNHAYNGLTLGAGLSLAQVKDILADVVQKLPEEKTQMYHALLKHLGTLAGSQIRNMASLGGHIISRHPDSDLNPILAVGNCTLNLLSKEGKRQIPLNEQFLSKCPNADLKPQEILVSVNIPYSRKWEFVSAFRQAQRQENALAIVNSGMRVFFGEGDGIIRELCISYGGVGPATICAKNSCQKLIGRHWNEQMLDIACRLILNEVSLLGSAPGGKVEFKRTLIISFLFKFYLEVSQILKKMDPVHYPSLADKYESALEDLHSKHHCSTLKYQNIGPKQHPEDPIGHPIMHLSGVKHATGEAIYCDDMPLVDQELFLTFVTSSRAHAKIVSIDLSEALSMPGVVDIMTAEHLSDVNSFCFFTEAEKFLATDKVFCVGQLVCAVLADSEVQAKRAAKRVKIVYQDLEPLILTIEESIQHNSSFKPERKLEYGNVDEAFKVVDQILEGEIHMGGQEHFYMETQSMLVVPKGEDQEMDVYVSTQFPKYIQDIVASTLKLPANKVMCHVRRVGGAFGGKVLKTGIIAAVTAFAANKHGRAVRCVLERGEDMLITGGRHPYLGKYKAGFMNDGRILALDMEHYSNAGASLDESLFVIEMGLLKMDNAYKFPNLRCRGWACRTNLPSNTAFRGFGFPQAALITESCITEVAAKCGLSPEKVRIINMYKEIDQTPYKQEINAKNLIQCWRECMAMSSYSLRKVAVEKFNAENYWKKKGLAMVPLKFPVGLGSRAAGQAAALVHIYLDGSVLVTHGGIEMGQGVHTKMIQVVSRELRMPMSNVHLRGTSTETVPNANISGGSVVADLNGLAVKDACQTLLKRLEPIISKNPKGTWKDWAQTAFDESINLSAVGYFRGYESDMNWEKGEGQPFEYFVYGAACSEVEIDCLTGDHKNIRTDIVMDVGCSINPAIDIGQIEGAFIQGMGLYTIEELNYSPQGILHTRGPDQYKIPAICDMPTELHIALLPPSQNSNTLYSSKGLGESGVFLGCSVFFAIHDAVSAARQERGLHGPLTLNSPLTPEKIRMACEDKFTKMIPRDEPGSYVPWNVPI
smiles,measurement,setting,value
C[C@@]1(O)CC[C@H]2[C@H](CC[C@@H]3[C@@H]2CC[C@]2(C)[C@@H](C(=O)Cn4ccc(C#N)n4)CC[C@@H]32)C1,logD at 20 µM,[1],4.6
same,Emax,[2],330%
same,Kp at 0.5 h,[3],1.9
same,CLhep predicted at 10 µM,[4],41.7 mL/min/kg
same,IC50,[5],13 nM
same,CLhep predicted at 10 µM,[6],83.3 mL/min/kg
same,clearance,[7],43.3 mL/min/kg
same,"solubility thermodynamic at 1 h, 10 µM",[8],1.9 µM
same,Emax,[9],725%
same,CLhep predicted at 10 µM,[10],5 mL/min/kg
same,EC50,[11],110 nM
same,clearance,[12],25 mL/min/kg
same,EC50,[13],225 nM
same,bioavailability,[14],56%
same,bioavailability,[15],26%
same,Kp at 0.5 h,[16],1.4
